Source: the supplement of paper PMC10307832

Experiments:
Experiment in all cases: relative viability (nuclei count vs DMSO), 5 days (fraction); higher = more cells survive
RO-3306 + Dasatinib = compound: C1=CC2=C(C=CC(=C2)C=C3C(=O)NC(=NCC4=CC=CS4)S3)N=C1 [RO-3306] + Cc1nc(Nc2ncc(C(=O)Nc3c(C)cccc3Cl)s2)cc(N2CCN(CCO)CC2)n1 [Dasatinib] (partner 0.075 µM)
Summary of the method: (§1)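 Relative viability equals treated-well nuclei counts divided by vehicle-well nuclei counts. Counts came from 4× images of lung cancer cell lines grown in 1536-well plates for 5 days after pin-tool dosing on the day after seeding. Dosing used one drug alone or a fixed anchor-drug dose plus five library-drug doses (not always all listed) in √10 steps, and values are medians of duplicate plates.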

[1] = compound: O=S(=O)(c1ccccc1)N(CC(F)(F)F)c1ccc(C(O)(C(F)(F)F)C(F)(F)F)cc1 + Cc1nc(NC(=O)N2CCC[C@H]2C(N)=O)sc1-c1ccnc(C(C)(C)C(F)(F)F)c1 [Alpelisib] (partner 2 µM)
Summary of the method: as §1

[2] = compound: O=S(=O)(c1ccccc1)N(CC(F)(F)F)c1ccc(C(O)(C(F)(F)F)C(F)(F)F)cc1 + COc1cccc2cc(-c3nc([C@H]4CC[C@H](C(=O)O)CC4)n4ncnc(N)c34)[nH]c12 [OSI-027] (partner 0.5 µM)
Summary of the method: as §1

RO-3306 + Bortezomib = compound: C1=CC2=C(C=CC(=C2)C=C3C(=O)NC(=NCC4=CC=CS4)S3)N=C1 [RO-3306] + CC(C)C[C@H](NC(=O)[C@H](Cc1ccccc1)NC(=O)c1cnccn1)B(O)O [Bortezomib] (partner 0.002 µM)
Summary of the method: as §1

[3] = compound: O=S(=O)(c1ccccc1)N(CC(F)(F)F)c1ccc(C(O)(C(F)(F)F)C(F)(F)F)cc1 + Nc1ncn([C@H]2C[C@H](O)[C@@H](CO)O2)c(=O)n1 [Decitabine] (partner 2 µM)
Summary of the method: as §1

Cell Line	relative viability (RO-3306 + Dasatinib; first compound 0.01 µM)	relative viability (RO-3306 + Dasatinib; first compound 0.03162 µM)	relative viability (RO-3306 + Dasatinib; first compound 0.1 µM)	relative viability (RO-3306 + Dasatinib; first compound 0.3162 µM)	relative viability (RO-3306 + Dasatinib; first compound 1 µM)	relative viability ([1]; first compound 0.8 µM)	relative viability ([1]; first compound 2.53 µM)	relative viability ([1]; first compound 8 µM)	relative viability ([2]; first compound 0.8 µM)	relative viability ([2]; first compound 2.53 µM)	relative viability ([2]; first compound 8 µM)	relative viability (RO-3306 + Bortezomib; first compound 0.01 µM)	relative viability (RO-3306 + Bortezomib; first compound 0.03162 µM)	relative viability (RO-3306 + Bortezomib; first compound 0.1 µM)	relative viability (RO-3306 + Bortezomib; first compound 0.3162 µM)	relative viability (RO-3306 + Bortezomib; first compound 1 µM)	relative viability ([3]; first compound 0.8 µM)	relative viability ([3]; first compound 2.53 µM)	relative viability ([3]; first compound 8 µM)
NCI-H520	0.168	0.195	0.178	0.195	0.162	1	0.915	1.28	0.298	0.21	0.281	0.802	0.369	0.5	0.582	0.435	0.457	0.478	0.493
NCI-H596	0.557	0.554	0.657	0.665	0.552	0.423	0.419	0.421	0.71	0.6	0.716	0.939	0.917	1.18	0.812	0.962	1.04	0.899	1.05
NCI-H647	0.155	0.117	0.18	0.226	0.129	1.25	1.01	1.35	0.592	0.498	0.681	1.13	0.889	1.04	0.931	0.751	0.502	0.437	0.353
NCI-H650	0.429	0.421	0.393	0.479	0.421	1.13	1.03	1	0.533	0.498	0.532	0.662	0.635	0.703	0.764	0.694	0.339	0.312	0.288
NCI-H661	0.834	0.769	0.828	0.814	0.799	0.752	0.681	1.02	0.737	0.788	0.738	0.817	0.738	0.84	0.829	0.935	0.612	0.569	0.498
NCI-H727	0.346	–	0.413	0.402	0.523	0.549	0.465	0.489	0.669	0.474	0.631	0.878	0.733	0.84	0.817	0.948	0.922	0.963	0.913
NCI-H838	0.351	0.254	0.244	0.295	0.273	1.12	0.923	1.07	0.411	0.412	0.467	0.825	0.523	0.661	0.808	0.685	0.474	0.46	0.482
NCI-H1355	0.673	–	0.683	0.703	0.504	0.861	0.727	0.715	0.409	0.366	0.453	1.5	1.15	1.17	1.18	1.2	0.354	0.382	0.342
